Source: US9045781B2, “Process for the production of optically-active esters of lactic acid and lactyllactic acid” (Plaxica Limited, priority 2011, dated 2015)

Excerpt: The solubility of lactide in different solvents was investigated.

CC1OC(=O)C(C)OC1=O (racemic) [lactide, 3,6-dimethyl-1,4-dioxan-2,5-dione]
Solubility of lactide in a n-BuOH/acetone system: 1.44 g
Solubility of lactide in different solvents, rank order: Acetone>>n-BuOH>t-BuOH
